One assay deals with T84 cells. Nature of the assay: Intracellular calcium mobilization (Fluo-3 AM, FLIPR) in T84 cells. In kind it is cell-based. The settings on record: T84 human colonic epithelial cell line; FIG. 5. From the text:
In addition, the pharmaceutical utility of P2Y agonist compounds of this invention are indicated by the intracellular calcium mobilization assay for P2Y activity. In this assay, cultured cells are stimulated with the increasing concentrations of P2Y receptor agonists. Intracellular calcium levels are monitored by measuring the changes in fluorescence intensity of a calcium-sensitive dye using the FLIPR (Molecular Devices Corp., Sunnyvale, Calif.) or equivalent instrumentation. A conventional technique is used to detect intracellular calcium mobilization induced by P2Y receptor agonists. The technique is familiar to those well versed in the art. Cells are seeded in 96-well plates and used for calcium mobilization assays. On the day of the assay, the growth medium is aspirated and replaced with a solution of Fluo-3 AM (2.5 μM final concentration) in an assay buffer consisting of (mM): KCI (10.0), NaCl (118), CaCl2(2.5), MgCl2 (1.0), HEPES (20), glucose (10), pH 7.4. Probenecid (Sigma Chemical Co.) is added to the dye load and dye wash medium at a working concentration of 2.5mM to increase dye retention in the cells. After a 60 minute incubation with Fluo-3 AM at 25° C., cells are washed free of dye (Columbus Plate Washer, TECAN U.S., Inc., Research Triangle Park, N.C.) and are stimulated with increasing concentrations of P2Y receptor agonists. Intracellular calcium levels are simultaneously monitored in each well by measuring the changes in fluorescence intensity using the FLIPR (Molecular Devices Corp., Sunnyvale, Calif.). T84 cells, a human colonic epithelial cell line, were subjected to the calcium mobilization assay described above. […] The activation of intracellular calcium mobilization by ATP and UTP in T84 and HT-29 cells indicate the pharmaceutical utility of P2Y receptor agonists in the gastrointestinal tract.

Assay [1] has as its system HT-29 cells. The experiment in a line: Intracellular calcium mobilization (Fluo-3 AM, FLIPR) in HT-29 cells. It counts as cell-based. The note with it: human colonic HT-29 cells; FIG. 6. The source says:
In addition, the pharmaceutical utility of P2Y agonist compounds of this invention are indicated by the intracellular calcium mobilization assay for P2Y activity. In this assay, cultured cells are stimulated with the increasing concentrations of P2Y receptor agonists. Intracellular calcium levels are monitored by measuring the changes in fluorescence intensity of a calcium-sensitive dye using the FLIPR (Molecular Devices Corp., Sunnyvale, Calif.) or equivalent instrumentation. A conventional technique is used to detect intracellular calcium mobilization induced by P2Y receptor agonists. The technique is familiar to those well versed in the art. Cells are seeded in 96-well plates and used for calcium mobilization assays. On the day of the assay, the growth medium is aspirated and replaced with a solution of Fluo-3 AM (2.5 μM final concentration) in an assay buffer consisting of (mM): KCI (10.0), NaCl (118), CaCl2(2.5), MgCl2 (1.0), HEPES (20), glucose (10), pH 7.4. Probenecid (Sigma Chemical Co.) is added to the dye load and dye wash medium at a working concentration of 2.5mM to increase dye retention in the cells. […] Intracellular calcium levels are simultaneously monitored in each well by measuring the changes in fluorescence intensity using the FLIPR (Molecular Devices Corp., Sunnyvale, Calif.). […]
In general terms: Calcium assays in cells follow changes in intracellular calcium, usually with a dye or a luminescent sensor.

Another assay concerns Goblet cells. The note with it: Goblet cells in vitro; Lethem et al. 1993; cited from earlier work.
Assay [2] has as its system HT-29 cells. The note with it: Otero et al. Mol Cell Biochem 2000; cited from earlier work.

Consider `CSc1nc(N)c2ncn([C@@H]3O[C@H](COP(=O)(O)OP(=O)(O)O)[C@@H](O)[C@H]3O)c2n1` [2-methylthioADP], for which the calcium mobilization entry in the assay on T84 cells is given as “did not simulate calcium mobilization”.

In the case of `Nc1ncnc2c1ncn2[C@@H]1O[C@H](COP(=O)(O)OP(=O)(O)OP(=O)(O)O)[C@@H](O)[C@H]1O` [ATP, 5′-adenosine triphosphate], the calcium mobilization result with T84 cells was “stimulate calcium mobilization”. Further, in the assay on HT-29 cells [1], the “calcium mobilization (P2Y response)” value is listed as “robust P2Y response”.

On to `O=c1ccn([C@@H]2O[C@H](COP(=O)(O)OP(=O)(O)OP(=O)(O)O)[C@@H](O)[C@H]2O)c(=O)[nH]1` [UTP, uridine 5′-triphosphate], for which the calcium mobilization result in the assay with T84 cells was “stimulate calcium mobilization”; in the assay with HT-29 cells [2] it was “stimulated calcium mobilization”. For the same molecule, the “rate and total amount of mucin secretion” value in the assay with Goblet cells is “increase both the rate and total amount of mucin secretion”. The “calcium mobilization (P2Y response)” value with HT-29 cells [1] is reported as “robust P2Y response”.

The values are drawn from patent US6624150B2, “Method of treating gastrointestinal tract disease with purinergic receptor agonists” (Inspire Pharmaceuticals, Inc., priority 1999, dated 2003).
